Assay: Specific surface area by nitrogen adsorption gas sorption (BET method)
Type: physicochemical
Conditions: toltrazuril particles, outgased in vacuum at room temperature
Description: Specific surface area was measured by gas sorption system based on nitrogen adsorption, using Brunauer, Emmett and Teller (BET) method. Corresponding amount of sample was outgased in a vacuum at room temperature. After degasification the tube was weighed with sample and the analysis was proceeded.

Compound | Specific surface area
Cc1cc(-n2c(=O)[nH]c(=O)n(C)c2=O)ccc1Oc1ccc(SC(F)(F)F)cc1 [Example 5, toltrazuril] | 19.5 m^2/g
Cc1cc(-n2c(=O)[nH]c(=O)n(C)c2=O)ccc1Oc1ccc(SC(F)(F)F)cc1 [Example 1, toltrazuril] | 13.8 m^2/g
Cc1cc(-n2c(=O)[nH]c(=O)n(C)c2=O)ccc1Oc1ccc(SC(F)(F)F)cc1 [Example 2, toltrazuril] | 15 m^2/g
Cc1cc(-n2c(=O)[nH]c(=O)n(C)c2=O)ccc1Oc1ccc(SC(F)(F)F)cc1 [Example 4, toltrazuril] | 15.2 m^2/g
Cc1cc(-n2c(=O)[nH]c(=O)n(C)c2=O)ccc1Oc1ccc(SC(F)(F)F)cc1 [Example 3, toltrazuril] | 13.8 m^2/g

Next, values leading:

Specific surface area | Compound
14.1 m^2/g | Cc1cc(-n2c(=O)[nH]c(=O)n(C)c2=O)ccc1Oc1ccc(SC(F)(F)F)cc1 [micronized toltrazuril, toltrazuril]
18.8 m^2/g | Cc1cc(-n2c(=O)[nH]c(=O)n(C)c2=O)ccc1Oc1ccc(SC(F)(F)F)cc1 [Example 6, toltrazuril]

From patent EP2276347B1, “TOLTRAZURIL WITH IMPROVED DISSOLUTION PROPERTIES” (KRKA, tovarna zdravil, d.d., Novo mesto, priority 2008, dated 2009)
